This note sets out measurements from patent publication US4563452A, “Derivatives of oxazinobenzothiazine-6,6-dioxide” (Provesan S.A., priority 1982, dated 1986).

Assay [1] relates to oedema produced by carrageenin. Put plainly: Anti-inflammatory activity (inhibition of oedema produced by carrageenin), method of Winter. The following applies: Rattus norvegicus, oral, 1 hour before carrageenin, ED-50 = dose which reduces the oedema volume by 25%. Type of assay: in vivo, Male rats of the Sprague-Dawley HC/CEY strain. As for the experimental part: ANTI-INFLAMMATORY ACTIVITY (INHIBITION OF OEDEMA PRODUCED BY CARRAGEENIN)
Method developed by Winter (Winter, C. A., Risley, E. A. and Nuss, G. W. Proc. Soc. Exp. Biol. Med., […] (1962)).
Male rats of the Sprague-Dawley HC/CEY strain are used, weighing from 90 to 110 g. The products are administered suspended in 5% gum arabic, by an oral method using an oesophageal probe, 1 hour before a subplantar injection in the right foot of each animal of 0.1 ml of 1% carrageenin suspension in physiological serum (NaCl 0.9%). The control animals are given 5% gum arabic, the total volume which is used in every case amounting to 10 ml/kg.
The volume of each foot is measured immediately before the carrageenin injection (time 0), then three and five hours after this injection using a mercury plethysmograph.
The inflammation index is calculated for each animal after 3 hours (I3) and after 5 hours (I5) after the carrageenin injection by means of the following formulae: [formula] wherein: VO =volume of the foot at time zero (immediately before the administration of carrageenin)
V3 =volume of the foot 3 hours after the injection of carrageenin
V5 =volume of the foot 5 hours after the injection of carrageenin.
The average inflammation index is calculated for the control batch after 3 hours (It3) and after 5 hours (It5).
The percentage of inhibition of the oedema (anti-inflammatory activity) is calculated for each animal by means of the formulae: [formula] wherein: A3 =anti-inflammatory activity in percentage of inhibition of the oedema after 3 hours
A5 =anti-inflammatory activity in percentage of inhibition of the oedema after 5 hours.
The anti-inflammatory activity is proportional to the logarithm of the administered dose. The dose which reduces the volume of the odema by 25% is obtained from the curve of dose logarithm-% effect. This dose is adopted as ED-50, since the maximum effect which is achieved is the reduction of the oedema by 50%.

For assay [2], the system named is pain induced by acetyl choline. Put plainly: Analgesic activity with respect to the pain induced by acetyl choline (contortions), method of Collier. Format: in vivo, Male mice of the Swiss strain. The conditions noted are these: Mus musculus, po, dose which reduces the number of contortions to half the initial value. Here is the method:
Analgesic activity with respect to the pain induced by acetyl choline
Method developed by Collier (Collier, H. O. W. Dinneen, L. C. Johnson, C. A. and Schneider, C.--Br. J. Pharmac. Chemother., 32, 295-310 (1968)).
Male mice of the Swiss strain are used, weighing from 20 to 25 g. The mice are put into individual cages. A volume of 0.2 ml/20 g of a solution of acetyl choline bromide of 0.32 mg/ml is administered intraperitoneally to each animal. Thus, the injected dose of acetyl choline bromide is 3.2 mg/kg. The number of contortions or stretches performed by each mouse is counted over a period of 5 minutes. After 5 minutes, the products are administered using 5% gum arabic as a vehicle. After 40 and 120 minutes of administration of the products, another injection of acetyl choline is given and the number of contortions which are observed over a period of 5 minutes is counted.
The percentage of inhibition of the number of contortions after 40 and 120 minutes is calculated for each animal using the following formulae: [formula] wherein: NO =number of contortions before the product is administered
N40 =number of contortions 40 minutes after administration of the product
N120 =number of contortions 120 minutes after administration of the product.
The percentage of inhibition of the contortions is directly proportional to the logarithm of the administered dose. The dose which reduces the number of contortions to half the initial value (ED-50) is obtained from the curve of dose logarithm-% effect.

Assay [3] addresses T1, prostaglandin-synthetase (1.14.99.1) (Bos taurus, UniProt O62664).
T1 construct: Prostaglandin-Synthetase of Seminal Vesicle of Cattle; from tissue; host or cells: seminal vesicle of cattle
T1 sequence (O62664 25-600): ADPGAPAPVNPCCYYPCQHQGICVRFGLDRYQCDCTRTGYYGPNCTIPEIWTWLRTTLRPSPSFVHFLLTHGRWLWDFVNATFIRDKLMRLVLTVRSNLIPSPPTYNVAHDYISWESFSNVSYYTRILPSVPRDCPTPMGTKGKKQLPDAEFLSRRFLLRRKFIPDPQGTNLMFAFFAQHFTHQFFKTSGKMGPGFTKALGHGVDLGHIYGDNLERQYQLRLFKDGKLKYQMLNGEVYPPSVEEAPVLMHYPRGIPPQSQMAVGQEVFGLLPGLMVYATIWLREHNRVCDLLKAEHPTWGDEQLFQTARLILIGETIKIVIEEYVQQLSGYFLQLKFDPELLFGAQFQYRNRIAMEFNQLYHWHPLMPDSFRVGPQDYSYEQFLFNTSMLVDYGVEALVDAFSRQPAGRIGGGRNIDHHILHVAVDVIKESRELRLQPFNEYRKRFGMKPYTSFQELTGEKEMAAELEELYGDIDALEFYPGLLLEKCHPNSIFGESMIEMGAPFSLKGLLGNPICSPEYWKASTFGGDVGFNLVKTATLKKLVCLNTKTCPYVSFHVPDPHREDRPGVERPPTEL
Put plainly: Inhibition of the prostaglandin-synthetase of seminal vesicle of cattle, method of Yoshimoto. Type of assay: biochemical. The conditions noted are these: in vitro; 37° C., 5 minutes contact of enzyme with product, then 10 minutes incubation with arachidonic acid; pH 8.0.
Experimental: Inhibition of the Prostaglandin-Synthetase of Seminal Vesicle of Cattle
The activity of the prostaglandin-synthetase (1.14.99.1) is determined by measuring the increases in absorbance at 278 nm due to the formation of prostaglandin B from prostaglandin E in an alkaline medium.
The incubation temperature was 37±0.1° C. in every case.
0.5 ml of substrate solution (0.6 mg of arachidonic acid in 10 ml of buffer) and 0.5 ml of buffer are added to 1.5 ml of cofactor solution (0.55 mg of hydroquinone+0.5 mg of hemoglobin+7.7 mg of glutathione in 12 ml of 0.2M Tris-HCl buffer of pH 8.0), containing 10 mg of enzyme, and the mixture is incubated at 37° C. for 10 minutes. The enzymatic reaction is stopped by the addition of 1.5 ml of 0.2M citric acid and the pGE is extracted with 2×5 ml of ethyl acetate. The organic phase is evaporated under a stream of nitrogen at 40° C. and the residue is redissolved in 2 ml of methanol and 0.5 ml of 3M potassium hydroxide. Finally, the absorptions at 278 nm are measured with respect to a blank to which 0.5 ml of buffer are added instead of 0.5 ml of substrate solution.
The enzymatic activity is expressed as an increase in the optical density for 10 minutes of reaction.
The subsequent stages are identical to those which have already been described. […]

The mark [4] stands for this setting: 3 hours after carrageenin injection, read-out: ED-50 3 hours.
The mark [5] stands for this setting: 5 hours after carrageenin injection, read-out: ED-50 5 hours.
Where [6] appears, read: 40 min, 40 minutes after administration, read-out: ED-50 40 min.
[7] abbreviates: 2 h, 120 minutes after administration, read-out: ED-50 120 min.

Read-outs that look alike come from different tables or passages of the source.

For orientation: IC50 means the concentration that gives 50% inhibition. A high value points to a need for much substance.

As for `Cc1cc(-n2c(=O)oc3c(c2=O)N(C)S(=O)(=O)c2ccccc2-3)no1` [Example 4, 5-methyl-3-[3-(5-methylisoxazolyl)]-2H,5H-1,3-oxazino[5,6-c][1,2]benzothiazine-2,4-(3H)dione-6,6-dioxide], the ED50 in assay [1] (setting [4]) is 38 mg/kg; in assay [1] (setting [5]), 39 mg/kg; in assay [2] (setting [6]), 154 mg/kg; in assay [2] (setting [7]), 154 mg/kg.
For the compound `CCN1c2c(oc(=O)n(-c3ccccn3)c2=O)-c2ccccc2S1(=O)=O` [Example 1, 5-ethyl-3-(2-pyridyl)-2H,5H-1,3-oxazino[5,6-c][1,2]benzothiazine-2,4-(3H)dione-6,6-dioxide], the ED50 in assay [1] (setting [4]) is more than 40 mg/kg; in assay [1] (setting [5]), more than 40 mg/kg; in assay [2] (setting [6]), more than 160 mg/kg; in assay [2] (setting [7]), more than 160 mg/kg.
For `Cc1cccc(-n2c(=O)oc3c(c2=O)N(C)S(=O)(=O)c2ccccc2-3)n1` [Example 7, 5-methyl-3-[2-(6-methylpyridyl)]-2H,5H-1,3-oxazino[5,6-c][1,2]benzothiazine-2,4-(3H)dione-6,6-dioxide], the ED50 is 20 mg/kg in assay [1] (setting [4]), 25 mg/kg in assay [1] (setting [5]), 7.5 mg/kg in assay [2] (setting [6]) and 10 mg/kg in assay [2] (setting [7]).
In the same order, the values of `CN1c2c(oc(=S)n(-c3ccccn3)c2=O)-c2ccccc2S1(=O)=O` [Example 3, 5-methyl-3-(2-pyridyl)-2H,5H-1,3-oxazino[5,6-c][1,2]benzothiazine-2(3H)thione-4-one-6,6-dioxide] are more than 40 mg/kg, more than 40 mg/kg, 25 mg/kg and 25 mg/kg.
For `CN1c2c(oc(=O)n(-c3ccccn3)c2=O)-c2ccccc2S1(=O)=O` [Example 2, 5-methyl-3-(2-pyridyl)-2H,5H-1,3-oxazino[5,6-c][1,2]benzothiazine-2,4-(3H)dione-6,6-dioxide], the ED50 in assay [1] (setting [4]) came to 2.3 mg/kg; in assay [1] (setting [5]) it was 2.6 mg/kg; in assay [2] (setting [6]), 1.8 mg/kg; in assay [2] (setting [7]), 1.1 mg/kg. In addition, in assay [3], the IC50 amounted to 100 µM.
`Cc1ccnc(-n2c(=O)oc3c(c2=O)N(C)S(=O)(=O)c2ccccc2-3)c1` [Example 6, 5-methyl-3-[2-(4-methylpyridyl)]-2H,5H-1,3-oxazino[5,6-c][1,2]benzothiazine-2,4-(3H)dione-6,6-dioxide]: the ED50 is more than 40 mg/kg in assay [1] (setting [4]), more than 40 mg/kg in assay [1] (setting [5]), more than 160 mg/kg in assay [2] (setting [6]) and more than 160 mg/kg in assay [2] (setting [7]).
Turning to `CCCCC1C(=O)N(c2ccccc2)N(c2ccccc2)C1=O` [Phenylbutazone, reference compound], the ED50 worked out at 17 mg/kg in assay [1] (setting [4]), 17 mg/kg in assay [1] (setting [5]), 40 mg/kg in assay [2] (setting [6]) and 35 mg/kg in assay [2] (setting [7]). The same compound registered an IC50 in assay [3] of 300 µM.
Consider `CN1c2c(oc(=O)n(-c3ncccn3)c2=O)-c2ccccc2S1(=O)=O` [Example 5, 5-methyl-3-(2-pyrimidinyl)-2H,5H-1,3-oxazino[5,6-c][1,2]benzothiazine-2,4-(3H)dione-6,6-dioxide], for which the ED50 in assay [1] (setting [4]) was more than 40 mg/kg; in assay [1] (setting [5]), more than 40 mg/kg; in assay [2] (setting [6]), more than 160 mg/kg; in assay [2] (setting [7]), more than 160 mg/kg.
